This note sets out measurements from publication PMC12114375, “Discovery of Hydrazineyl Amide Derivative of Pseudolaric Acid B for Reprogramming Tumor-Associated Macrophages Against Tumor Growth” (Molecules, 2025).

Each structure is given as a SMILES string.

Common to all, as to assay type: cell-based, mouse
The subject of one series is Raw264.7 cells. Kind of series: Cell viability (CCK-8) of RAW264.7 cells. Particulars: IL-4/IL-13 plus compound 10 μM, 12 h. The method, then:
Cells were seeded in 96-well tissue culture plates. On the next day, cells were exposed to various concentrations of compounds and further cultured for the indicated period. Finally, cell proliferation was determined by using the Cell Counting Kit (CCK-8) (Dojindo, Kumamoto, Japan) assay.
Figure S2. Effects of natural pseudolaric acids 1-4, 6 and their O-pyranosides 5, 7 as well as the derivatives 8-18 o f 1 on Raw264.7 cell viability. Raw264.7 cells were treated with IL-4/IL-13 alone or combined with indicated compounds (10 μM) for 12 h. After incubation, the cell viability was determined using a cell counting kit (CCK-8, Dojindo, Japan) assay.
(1 picture or pasted object on this page, not shown here)

Series [1] relates to ARG1, NOS2, CD206 and MHC II mRNA expression in RAW 264.7 cells. Kind of series: qRT-PCR of ARG1, NOS2, CD206, MHC II in RAW264.7 cells at multiple concentrations. Particulars: RAW 264.7 cells stimulated with IL-4/IL-13, multiple concentrations, 12 h. The method, then: We also extended the test to primary murine macrophages derived from bone marrow (BMDMs), which were cultured in vitro with recombinant mouse M-CSF for 6 days. The BMDMs were then stimulated with IL-4/IL-13, leading to their transformation into M2-like pro-tumoral macrophages. This transformation was characterized by an increase in both ARG1 and CD206 expression and a decrease in both NOS2 and MHC II expression. […] Subsequently, we assessed the capacity of compound 12 to inhibit the M2-like polarization of macrophages using CSF-1-differentiated mouse BMDMs. These cells were treated with IL-4 and IL-13 for 48 h, and the expression levels of CD206, an M2-type marker, and CD86, an M1-type marker, were analyzed via flow cytometry. […]
Figure 2 Compound 12 inhibits the M2-like polarized phenotype of macrophages. […] The expression levels of the markers CD206 and CD86 on induced macrophages were determined by flow cytometry, and the mean fluorescence intensity (MFI) was analyzed with FlowJo (C), or the cells were lysed and immunoblotted to detect the indicated proteins (D). […] Data are represented as means ± SD. ^### p < 0.001 vs. non-stimulated control group, * p < 0.05, ** p < 0.01, *** p < 0.001 vs. stimulated control group. p-values were determined using one-way ANOVA.
A general note: In qPCR the cycle at which signal appears reflects the starting amount.

In series [2] the test system is ARG1 mRNA expression in RAW 264.7 cells. Kind of series: qRT-PCR of ARG1 mRNA in IL-4/IL-13-stimulated RAW 264.7 cells. Particulars: Mus musculus, RAW264.7, IL-4/IL-13 (20 ng/mL) plus compound 10 μM, 12 h, stimulated control = 100%, mean ± SD, read-out: ARG1 mRNA Relative Expression (%). An excerpt:
(§1) We first investigated the impacts of a series of commercially available natural pseudolaric acids or their O-pyranosides (Figure 1) on the pro-tumoral phenotype of TAMs, which play a critical role in anti-tumor immune response modulation. […] In contrast, M1-biased macrophages combat tumor growth and bacterial infections by expressing inducible nitric oxide synthase 2 (NOS2), which catalyzes the production of nitric oxide (NO). Recognizing the pivotal roles of ARG1 and NOS2, we utilized these molecules as key biomarkers and effectors for assessing macrophage immune function. In our experiments, the mouse monocyte–macrophage leukemia cell line RAW 264.7 was induced with IL-4/IL-13 to acquire an M2-like pro-tumoral phenotype. Concurrently, the cells were treated with the pseudolaric acid-related natural products 1–7 at a concentration of 10 μM for 12 h. Additionally, PLX3397 was used as a positive control at a concentration of 0.5 μM. […] As shown in Table 1 and Figure S1A, pseudolaric acid B (1), its deacetoxyl analogue 2 (pseudolaric acid C), and β-D-glucoside 7 substantially attenuated the upregulation of ARG1 mRNA expression induced by IL-4/IL-13, with statistically significant effects. In contrast, bis-carboxylic acids analogs 4 (pseudolaric acid C2) and 6 (demethoxydeacetoxypseudolaric acid B) have no significant impact on ARG1 mRNA expression.
(§2) With these carboxylic acid-modified derivatives in hand, we investigated their impact at 10 μM on ARG1 and NOS2 mRNA expression in RAW 264.7 cells pre-stimulated with IL-4/IL-13 to evaluate the effects on the pro-tumor phenotype of macrophages. […] Further removal of one hydroxyl from the glycerol moiety 15 further enhanced the inhibitory effect on ARG1 expression but had no significant impact on NOS2 expression.
(§3) Total RNA was isolated from cells using the EZ-press RNA Purification Kit (EZBioscience, Suzhou, China) and subjected to reverse transcription with the 5×HiScript II qRT SuperMix II (Vazyme, Nanjing, China). PCR was performed with the 2×ChamQ Universal SYBR qPCR Master Mix (Vazyme, Nanjing, China). All primers for qRT-PCR are described in Table S1. The 2^−∆∆Ct method was utilized to calculate the fold change in gene expression, with the expression levels in the stimulated group set as the baseline for normalization.

In series [3] the test system is NOS2 mRNA expression in RAW 264.7 cells. The series is described as follows: qRT-PCR of NOS2 mRNA in IL-4/IL-13-stimulated RAW 264.7 cells. Particulars: Mus musculus, RAW264.7, IL-4/IL-13 (20 ng/mL) plus compound 10 μM, 12 h, stimulated control = 100%, mean ± SD, read-out: NOS2 mRNA Relative Expression (%).
Text: as §1, §2, §3

Turning to `COC(=O)C1=CC[C@@]23CC[C@@H]([C@@](C)(/C=C/C=C(\C)C(=O)O)OC2=O)[C@@]3(OC(C)=O)CC1` [compound 1, pseudolaric acid B], the cell viability entry in the series on Raw264.7 cells was “only a minimal reduction in cell viability”. Also, in series [1], the “mRNA expression levels of ARG1 and CD206” value is on record as “significantly reduced”; the “mRNA expression levels of NOS2 and MHC II” value is “upregulated the mRNA expression levels of NOS2 and MHC II in a dose-dependent manner”. Moreover, the mrna remaining at 10 µM in series [2] was determined as 9.9 ± 0.8%. Moreover, the activity at 10 µM in series [3] was determined as 135 ± 19.5%.
